This is an account of results in paper PMC6895180 (Nature Communications, 2019).

Several values for one entry are separate records, joined by “and”; a condition that tells them apart may be missing. Equal values may be shown once. Read-outs that look alike come from different tables or passages of the source. Marks after values point to notes of the source that are not given here.

One series has as its system T. brucei Squib 427. The experiment in a line: microbe, parasite or virus in culture. It is filed as cell-based, Trypanosoma brucei brucei. How it is done:
(§1) Drug susceptibility tests with Lister 427WT, TbAT1-KO[48], B48[26] and ISMR1[27] were performed using an assay based on the viability indicator dye resazurin in 96-well plates, each well containing 2 × 10^4 cells. The plates were incubated for 48 h with a doubling dilution series of the test compounds in HMI-9/fetal bovine serum at 37 °C/5% CO2 (23 dilutions starting at 100 µM, except for the pentamidine control (50 µM)), after which resazurin (20 µL of 125 µg mL^−1 resazurin sodium salt solution was added to each well (containing 200 µL of cells and test compound)) was added to each well and the plates incubated for another 24 h. Fluorescence was determined using a FLUOstar Optima (BMG Labtech, Durham, NC) and the results fitted to a sigmoid curve with variable slope using Prism 5.0 or Prism 7.04 (GraphPad, San Diego, CA).
(§2) Susceptibility assays with T. brucei Squib 427[49] or T. b. rhodesiense STIB-900[50] were performed under similar conditions as above, but using 10 concentrations of a 4-fold compound dilution series starting at 64 µM. Trypanosoma brucei Squib 427 was seeded at 1.5 × 10^4 parasites/well and T. b. rhodesiense at 4 × 10^3 parasites per well, followed by the addition of resazurin (final concentration of 10 µg mL^−1) after 24 h (T. brucei) or 6 h (T. b. rhodesiense).

Series [1] concerns T. b. rhodesiense STIB-900. The series can be described thus: microbe, parasite or virus in culture. It is filed as cell-based, Trypanosoma brucei rhodesiense. Here is the method:
as §1, §2

Series [2] in a line: Cytotoxicity on MRC-5 fibroblasts (resazurin). Type of series: cell-based, human. Conditions: human. How it is done:
Cytotoxicity assays were performed on MRC-5SV2 (Sigma-Aldrich/ECACC, catalogue number 84100401) human embryonic lung fibroblasts, which were cultured in minimum essential medium with Earle’s salt medium, supplemented with L-glutamine, NaHCO3 and 5% inactivated foetal calf serum. All cultures and assays were conducted at 37 °C with 5% CO2. Ten microliters of the aqueous compound dilutions were added to 190 µL of MRC-5SV2 (3 × 10^4 cells mL^−1). Cell growth was compared to untreated control wells (100% cell growth) and medium control wells (0% cell growth). After a 3-day incubation, cell viability was assessed fluorimetrically after the addition of 50 μL resazurin per well (final concentration of 10 µg mL^−1). After 4 h at 37 °C, fluorescence was measured (λex 550 nm, λem 590 nm). The results were expressed as percentage reduction in cell growth/viability compared to control wells and an EC50 was determined.
Background: Resazurin is reduced to fluorescent resorufin, in cell work by metabolically active cells.

In series [3] the test system is T. b. brucei Lister 427WT. The experiment in a line: Drug susceptibility test (resazurin), Lister 427WT. Type of series: cell-based, Trypanosoma brucei brucei. How it is done: as §1
Series [4] has as its system ISMR1: isometamidium-resistant T. brucei cell line. The series can be described thus: microbe, parasite or virus in culture. Type of series: cell-based, Trypanosoma brucei brucei. Conditions: for RF (ISMR1): resistance factor vs Lister 427WT. Here is the method:
as §1

In series [5] the test system is TbAT1-KO: T. brucei cell line lacking the TbAT1(P2) transporter gene. The experiment in a line: microbe, parasite or virus in culture. It is filed as cell-based, Trypanosoma brucei brucei. Conditions: for RF (TbAT1-KO): resistance factor: ratio of EC50 of resistant and Lister 427WT. How it is done:
as §1

The test system of series [6] is B48: pentamidine, diminazene and melaminophenyl arsenical resistant T. brucei line. The experiment in a line: microbe, parasite or virus in culture. Type of series: cell-based, Trypanosoma brucei brucei.
In series [7] the target is Lister 427WT T. b. brucei. The experiment in a line: Adenosine deaminase susceptibility (drug sensitivity with/without 2 µM deoxycoformycin). Type of series: cell-based, Trypanosoma brucei brucei. The following applies: for EC50: Trypanosoma brucei, Lister 427WT, mean ± SEM, n=3. Here is the method: as §1, with “CA). […]” for “CA).”
Adenosine deaminase susceptibility
in the presence or absence of 2 µM 2’-deoxycoformycin. […]

On the set-up of series [8]: method as in earlier work. Conditions: ref 36 (Olsen, D. B. et al.), cited from earlier work.
For series [9], the system named is Nc1ncnc2c1ncn2[C@@H]1O[C@H](CO)[C@@H](O)[C@H]1O. The experiment in a line: cells, lysate or membranes. The following applies: other: mean ± SEM, n = 3; pH 7.3.
Another series has as its system P1 transporter. It is filed as cell-based, Trypanosoma brucei. The following applies: mean ± SEM, n = 3. Here is the method:
Non-specific association of radiolabel with the cell pellet was determined using an identical incubation in the presence of saturating (1 mM) unlabelled adenosine.

Substrate in series [10]: Nc1ncnc2c1ccn2[C@@H]1O[C@H](CO)C[C@H]1O
The experiment in a line: ADKIN assay (phosphorylation by purified recombinant enzyme, HPLC). It is filed as biochemical, Trypanosoma brucei. The following applies: other: first phosphorylation step; mean and SE, n = 3; pH 7.5. Here is the method:
The T. brucei ADKIN enzyme was diluted in a buffer containing 0.05% (v/v) Tween-20, 50 mM KCl, 0.1 mM dithiothreitol, and 50 mM Tris-HCl, pH 7.5 (dilution buffer), prior to use in the assay. The final assay mixture contained 12.5 ng T. brucei ADKIN, a range between 50 and 1000 µM of nucleoside 9 (or 1000 µM deoxyadenosine in the control reaction), 100 mM KCl, 10 mM MgCl2, 0.5 mM ATP, 5 mM potassium phosphate and 50 mM Tris-HCl, pH 7.5. The assay was incubated at 37 °C for 30 min, and subsequently heated for 2 min at 100 °C to inactivate the enzyme, diluted with 2 volumes of water, centrifuged through a Nanosep 3k Omega filter and mixed 1:1:2 with water and mobile phase. The HPLC analysis was performed on a 2.1 × 150 mm ACE Excel C18 column using a mobile phase composition 4A:76B:20C (see nucleotide pool analysis, Supplementary Information for details). Using these conditions, consecutive samples could be loaded (Supplementary Fig. 12). After 4–5 samples, the column was washed with high percent A (80A:20C) to remove bound ADP and ATP before re-equilibrating the column to original conditions.

Where [11] appears, read: Trypanosoma brucei, Alamar blue cell viability assay, mean and SEM, read-out: T. b. brucei EC50.
[12] abbreviates: Trypanosoma brucei, source data, read-out: T. brucei brucei EC50, Average.
Where [13] appears, read: Trypanosoma brucei, RHODESIENSE, Alamar blue cell viability assay, mean and SEM, read-out: T. b. rhodesiense EC50.
[14] abbreviates: Trypanosoma brucei, RHODESIENSE, source data, read-out: T. brucei rhodesiense EC50, single measurements.
Setting [15] is: Trypanosoma brucei, mean and SEM, n = 3, read-out: Lister 427 EC50.
Where [16] appears, read: Trypanosoma brucei, mean and SEM, n = 3, read-out: ISMR1 EC50.
Where [17] appears, read: Trypanosoma brucei, source data, read-out: ISMR1 EC50, single determinations.
The mark [18] stands for this setting: source data, read-out: ISMR1 EC50, single determinations.
[19] abbreviates: Trypanosoma brucei, read-out: TbAT1-KO EC50, mean and SEM, n = 3.
Setting [20] is: Trypanosoma brucei, read-out: TbAT1-KO EC50, single determinations, source data.
[21] abbreviates: read-out: TbAT1-KO EC50, single determinations, source data.
[22] abbreviates: Trypanosoma brucei, mean and SEM, n = 3, read-out: B48 EC50.

In general, EC50 refers to the concentration that produces a half-maximal response. For the molecule `Nc1ncnc2c1ccn2[C@@H]1O[C@H](CO)[C@@H](O)[C@H]1O` [Compound 6, Tubercidin, reference compound], the “SI (MRC/T.b. brucei)” value in the series on T. brucei Squib 427 worked out at 4. For the same molecule, the concentration for a half-maximal effect (EC50) was 0.48 ± 0.1 µM with T. brucei Squib 427 (setting [11]); 0.48 µM in the series on T. brucei Squib 427 (setting [12]); 0.036 ± 0.001 µM in [1] (setting [13]); 0.036 µM in [1] (Trypanosoma brucei, RHODESIENSE, source data, read-out: T. brucei rhodesiense EC50, Average); 0.035 µM in series [1] (setting [14]); 0.0332 µM and 0.0399 µM in series [1] (source data, read-out: T. brucei rhodesiense EC50, single measurements). Also, the EC50 in series [3] (setting [15]) was found to be 0.15 ± 0.03 µM; in series [3] (Trypanosoma brucei, source data, read-out: s427 EC50, AVG), 0.151 µM; in series [4] (setting [16]) it was 1.7 ± 0.5 µM; in [4] (Trypanosoma brucei, source data, read-out: ISMR1 EC50, AVG) it was 1.67 µM; in series [4] (setting [17]) it was 2.15 µM; in series [4] (setting [18]), 1.19 µM. Also, the EC50 was determined as 2.61 ± 0.7 µM in series [5] (setting [19]); 3.26 µM in series [5] (setting [20]); 1.95 µM in series [5] (setting [21]); 4.3 ± 1.3 µM in series [6] (setting [22]); 4.34 µM in series [6] (Trypanosoma brucei, source data, read-out: B48 EC50, AVG); 0.22 ± 0.01 µM in series [7] (absence of deoxycoformycin, read-out: T. b. brucei EC50, -Dcf). For the same molecule, the concentration for a half-maximal effect (EC50) in series [7] (presence of 2 µM deoxycoformycin, read-out: T. b. brucei EC50, +Dcf) was 0.31 ± 0.07 µM. Besides, the “SI (MRC/T.b. rhodesiense)” value in series [1] is 61. Moreover, the 50% effective concentration (EC50) at 3 day was 2.2 ± 0.7 µM in series [2] (cytotoxicity in human MRC-5 fibroblasts, mean and SEM, read-out: MRC-5 EC50); 2.23 µM in [2] (source data, read-out: MRC-5 EC50, Average). Besides, in series [4], the “RF (ISMR1)” value is given as 11.1**. In series [5], the “RF (TbAT1-KO)” value is listed as 17.2**. Moreover, the “RF (B48)” value in series [6] is reported as 28.7*. For the same molecule, the “effect of adenosine deaminase inhibition (2’-deoxycoformycin) on EC50” value in series [7] was “not significantly affected”. Further, the “acute toxicity in mice” value was “tolerated with no visible signs of toxicity” in [8] (20 mg/kg over 14 days) and “lethal” in series [8] (50 mg/kg).

For orientation: Km means the substrate concentration at which the rate is half of its maximum. In the case of “P2 transporter (TbAT1) (Trypanosoma brucei)”, the Km in [9] amounted to 0.53 ± 0.02 µM.

As for `Nc1ncnc2c1ncn2[C@@H]1O[C@H](CO)[C@@H](O)[C@H]1O` [Adenosine, reference compound], in the series with P1 transporter, the Michaelis constant (Km) turned out to be 0.12 ± 0.02 µM.

For the molecule `Nc1ncnc2c1ccn2[C@H]1C[C@H](O)[C@@H](CO)O1` [Compound 11, 2′-Deoxy-TUB], the 50% effective concentration (EC50) in the series with T. brucei Squib 427 (setting [11]) was 48 ± 1 µM; in the series with T. brucei Squib 427 (setting [12]) it was 48.5 µM; in the series on T. brucei Squib 427 (Trypanosoma brucei, source data, read-out: T. brucei brucei EC50, single measurements), 49.9 µM; with T. brucei Squib 427 (source data, read-out: T. brucei brucei EC50, single measurements) it was 47.2 µM; in series [1] (setting [13]), greater than 64 µM; in [1] (setting [14]), greater than 64 µM. Moreover, the EC50 in series [3] (setting [15]) is 96.4 ± 13.8 µM; in [3] (Trypanosoma brucei, source data, read-out: s427 EC50, single determinations) it was 82.6 µM; in series [3] (source data, read-out: s427 EC50, single determinations) it was 97.4 µM; in series [4] (setting [16]), 77.8 ± 1.7 µM; in series [4] (setting [17]), 77.3 µM; in series [4] (setting [18]), 81 µM and 75.1 µM. Besides, the EC50 in series [5] (setting [19]) was 43.7 ± 2.2 µM; in [5] (setting [20]) it was 41.5 µM; in [5] (setting [21]), 45.9 µM and 46.9 µM; in series [6] (setting [22]), 41.8 ± 1.4 µM; in [6] (Trypanosoma brucei, source data, read-out: B48 EC50, single determinations) it was 40.3 µM; in series [6] (source data, read-out: B48 EC50, single determinations), 43.2 µM and 40.8 µM. Further, the “SI (MRC/T.b. brucei)” value in the series on T. brucei Squib 427 (selectivity index) was 1.3. The EC50 at 3 day in series [2] (MRC-5SV2 human embryonic lung fibroblasts, cytotoxicity in human MRC-5 fibroblasts, mean and SEM, read-out: MRC-5 EC50) is greater than 64 µM; in [2] (MRC-5SV2 human embryonic lung fibroblasts, source data, read-out: MRC-5 EC50, single measurements), greater than 64 µM. Also, the “RF (ISMR1)” value in [4] is 0.81. In addition, in series [5], the “RF (TbAT1-KO)” value was 0.45**. For the same molecule, the “RF (B48)” value in series [6] (resistance factor vs Lister 427WT) is recorded as 0.43**.

B1: T. brucei ADKIN (Trypanosoma brucei brucei TREU927) (protein)
chain: MSSAPLRVYVQCNPLLDVSAHVSDEFLVKYGLERGTAILLSERQKGIFDDIEKMPNVRYVPGGSGLNVARVAQWMQQAYKGKFVTYVGCIADDRYGKVLKEAAEHEGIVMAVEHTTKAGSGACAVCITGKERTLVADLGAANHLSSEHMRSPAVVRAMDESRIFYFSGFTLTVDVNHVLQACRKAREVDGLFMINLSAPFIMQFFSAQLGEVLPYTDIIVANRHEAKEFANMMKWDTDCVEEIARRAVSEVPYTGTKGRVVVFTRDIEPTVIATKDGVETVPVPQLDQDKVIDMNGAGDAFVGGFLSAYAVGKDLRRCCETGHYTAQEVIQQDGCSFPEKPSFSP
For the molecule B1, the Km in [10] was 195 ± 24 µM.
